Assay results taken from PubChem BioAssay AID588384 (NMMLSC, 2011).
Activity calls are given as the source filed them.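 How the source made its calls: active means half-maximal concentration at most 10 µM and% response shifting at least 30 points across doses; inactive means the rest.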

Molecular target: Cell division control protein 42 homolog (Homo sapiens) (UniProt P60953)
Assay: constitutively active Cdc42 guanine nucleotide binding blockers – biochemical, activated mutant, bead multiplex, flow cytometry, round 1, selectivity assay for Rab7 inhibitor project, SAR follow-up (AID 588384)
Conditions: GST-Cdc42 act beads, fluorescent GTP binding

Chain of Cell division control protein 42 homolog (Homo sapiens) (P60953 whole entry, looked up): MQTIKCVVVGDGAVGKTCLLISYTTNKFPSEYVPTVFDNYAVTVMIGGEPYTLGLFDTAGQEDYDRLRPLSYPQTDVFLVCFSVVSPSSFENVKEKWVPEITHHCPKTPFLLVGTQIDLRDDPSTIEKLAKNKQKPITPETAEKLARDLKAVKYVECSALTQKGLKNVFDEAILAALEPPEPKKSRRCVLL

Q: How did the EC50 turn out when CC1(C)Cc2c(sc(NC(=S)NC(=O)c3ccccc3Br)c2C(=O)O)CO1 was run?
A: The EC50 was 54 nM.

Q: How did the EC50 turn out when COc1ccc(C(=O)NC(=S)Nc2sc3c(c2C(=O)O)CC(C)(C)OC3)cc1 was run?
A: The EC50 was 204 nM.

Q: CC1(C)CCc2sc(NC(=S)NC(=O)c3ccccc3)c(C(=O)O)c2C1 was tested. Which EC50 did it give?
A: The EC50 was 108 nM.

Q: How did the EC50 turn out when COc1cccc(C(=O)NC(=S)Nc2sc3c(c2C(=O)O)CC(C)(C)OC3)c1 was run?
A: The EC50 was 54 nM.

Q: CC1(C)Cc2c(sc(NC(=S)NC(=O)c3ccc(Br)cc3)c2C(=O)O)CO1 was tested. Which EC50 did it give?
A: The EC50 was 289 nM.

Q: With CC1Cc2c(sc(NC(=S)NC(=O)c3ccccc3)c2C(=O)O)CO1 (stereo unspecified) as the compound, how does the EC50 read?
A: Its EC50 is 90 nM.

Q: Which EC50 does the source give for CC1(C)Cc2c(sc(NC(=S)NC(=O)c3ccccc3F)c2C(=O)O)CO1 here?
A: The EC50 was 51 nM.

Q: CC1(C)Cc2c(sc(NC(=O)NC(=O)c3ccccc3)c2C(=O)O)CO1 was tested. Which EC50 did it give?
A: Its EC50 is 468 nM.

Q: Which EC50 does the source give for O=C(NC(=S)Nc1sc2c(c1C(=O)O)CCOC2)c1ccccc1 here?
A: The EC50 was 44 nM.

Q: How did the EC50 turn out when CC1(C)Cc2c(sc(NC(=S)NC(=O)c3cccc(Br)c3)c2C(=O)O)CO1 was run?
A: The EC50 was 5690 nM.

Q: With CC1(C)Cc2c(sc(NC(=S)NC(=O)c3cccc(F)c3)c2C(=O)O)CO1 as the compound, how does the EC50 read?
A: The EC50 was 326 nM.

Same assay, conditions: GST-Cdc42 act beads, fluorescent GTP binding, at 100 µM (top of the series)

Q: Cc1ccc(NC(=O)Nc2sc3c(c2C(=O)O)CCN(C)C3)cc1 was tested. Which “% response (lower = inhibition)” value did it give?
A: The value was “inactive”.

Q: Which “% response (lower = inhibition)” value does the source give for Cc1ccc(Nc2nc3sc4c(c3c(=O)o2)CCN(C)C4)cc1 here?
A: Its value is “inactive”.

Q: How did the “% response (lower = inhibition)” value turn out when CC1(C)Cc2c(sc(NC(=O)Cc3ccccc3)c2C(=O)O)CO1 was run?
A: The value was “inactive”.

Q: For COC(=O)c1c(N)sc2c1CC(C)(C)OC2, which “% response (lower = inhibition)” value is on record?
A: The value was “inactive”.

Q: For CCOC(=O)c1c(NC(=O)NC(C)(C)C)sc2c1CCN(C)C2, which “% response (lower = inhibition)” value is on record?
A: The value was “inactive”.

Q: COC(=O)c1c(NC(=S)NC(=O)c2ccccc2)sc2c1CC(C)(C)OC2 was tested. Which “% response (lower = inhibition)” value did it give?
A: The value was “inactive”.

Q: How did the “% response (lower = inhibition)” value turn out when CN1CCc2c(sc3nc(Nc4ccc(F)cc4)oc(=O)c23)C1 was run?
A: The value was “inactive”.

Q: CCOC(=O)c1c(NC(=S)NC(=O)c2ccccc2)sc2ccccc12 was tested. Which “% response (lower = inhibition)” value did it give?
A: The value was “inactive”.

Q: Which “% response (lower = inhibition)” value does the source give for CN1CCc2c(sc(NC(=O)Nc3ccc(F)cc3)c2C(=O)O)C1 here?
A: Its value is “inactive”.

Q: How did the “% response (lower = inhibition)” value turn out when CCOC(=O)c1c(NC(=O)Nc2ccc(F)cc2)sc2c1CCN(C)C2 was run?
A: The value was “inactive”.

Q: CCOC(=O)c1c(NC(=S)Nc2ccccc2)sc2c1CC(C)(C)OC2 was tested. Which “% response (lower = inhibition)” value did it give?
A: Its value is “inactive”.

Q: Which “% response (lower = inhibition)” value does the source give for CC1(C)Cc2c(sc(NC(=S)Nc3ccccc3)c2C(=O)O)CO1 here?
A: Its value is “inactive”.

Q: For CCOC(=O)c1c(NC(=O)Nc2ccc(C)cc2)sc2c1CCN(C)C2, which “% response (lower = inhibition)” value is on record?
A: Its value is “inactive”.

Q: For CCOC(=O)c1c(N)sc2ccccc12, which “% response (lower = inhibition)” value is on record?
A: The value was “inactive”.

Q: With CC(C)(C)OC(=O)c1c(NC(=S)NC(=O)c2ccccc2)sc2c1CCOC2 as the compound, how does the “% response (lower = inhibition)” value read?
A: Its value is “inactive”.
